Measurements from patent US20190374563A1, “TREATMENT OF KLEBSIELLA PNEUMONIAE INFECTIONS WITH ANTIBACTERIAL AMINOGLYCOSIDE COMPOUNDS” (Achaogen, Inc., priority 2009, published 2019).
≈ marks a conversion by molar mass, not a printed value. Like-named read-outs stand apart in the source and are kept apart here.

Assays:
[1] = test system: P. aeruginosa ATCC 27853 (APAE001); experiment: MIC assay, CLSI broth microdilution; type: cell-based; conditions: Pseudomonas aeruginosa
Protocol: (§1) Minimum inhibitory concentrations (MIC) were determined by reference Clinical and Laboratory Standards Institute (CLSI) broth microdilution methods per M7-A7 [2006]. Quality control ranges utilizing E. coli ATCC 25922, P. aeruginosa ATCC 27853 and S. aureus ATCC 29213, and interpretive criteria for comparator agents were as published in CLSI M100-S17 [2007]. Briefly, serial two-fold dilutions of the test compounds were prepared at 2× concentration in Mueller Hinton Broth. The compound dilutions were mixed in 96-well assay plates in a 1:1 ratio with bacterial inoculum. The inoculum was prepared by suspension of a colony from an agar plate that was prepared the previous day. Bacteria were suspended in sterile saline and added to each assay plate to obtain a final concentration of 5×10^5 CFU/mL. The plates were incubated at 35° C. for 20 hours in ambient air.

[2] = test system: E. coli ATCC 25922 (AECO001); experiment: MIC assay, CLSI broth microdilution; type: cell-based; design: MIC AECO001: unit not given here; conditions: for MIC: Escherichia coli
Protocol: as §1

[3] = ATCC27853, read-out: MIC APAE001
[4] = ATCC25922, read-out: MIC AECO001

Row | MIC ([1]; Table 1, APAE001 is ATCC27853, read-out: MIC APAE001) [µg/mL] | MIC ([2]; Table 1, AECO001 is ATCC25922, read-out: MIC AECO001) [µg/mL] | MIC AECO001 ([2]; Table 3, E. coli ATCC25922) | Compound | MIC [1, 3] [µg/mL] | MIC [2, 4] [µg/mL]
1 | – | – | – | CN[C@@H]1[C@@H](O)[C@@H](O[C@@H]2[C@@H](O)[C@H](O[C@H]3OC(CNCC4(O)CC(N)C4)=CC[C@H]3N)[C@@H](N)C[C@H]2NC(=O)C2(O)CNC2)OC[C@]1(C)O (stereo partly shown) [Example 47] | 1 to 16 (≈ 1.55 to 24.8 µM) | 1 to 16 (≈ 1.55 to 24.8 µM)
2 | 1 to 16 (≈ 1.78 to 28.5 µM) | < 1 | 1 | CNCC1=CC[C@@H](N)[C@@H](O[C@H]2[C@H](O)[C@@H](O[C@H]3OC[C@](C)(O)[C@H](NC)[C@H]3O)[C@H](NC(=O)C3(O)CNC3)C[C@@H]2N)O1 [Example 61] | – | –
3 | – | – | – | CN[C@@H]1[C@@H](O)[C@@H](O[C@@H]2[C@@H](O)[C@H](O[C@H]3OC(CNCC4(O)CC(N)C4)=CC[C@H]3N)[C@@H](N)C[C@H]2NC(=O)[C@@H](O)CCN)OC[C@]1(C)O (stereo partly shown) [Example 46] | 1 to 16 (≈ 1.54 to 24.7 µM) | < 1
4 | – | – | – | CN[C@@H]1[C@@H](O)[C@@H](O[C@@H]2[C@@H](O)[C@H](O[C@H]3OC(CN)=CC[C@H]3NC(=O)C(N)CCCN)[C@@H](N)C[C@H]2NC(=O)[C@@H](O)CCN)OC[C@]1(C)O (stereo partly drawn) [Example 99, 2′-(2,5-Diamino-pentoyl)-1-(4-amino-2(S)-hydroxy-butyryl)-sisomicin] | 1 to 16 (≈ 1.51 to 24.1 µM) | 1 to 16 (≈ 1.51 to 24.1 µM)
5 | – | – | – | CN[C@@H]1[C@@H](O)[C@@H](O[C@@H]2[C@@H](O)[C@H](O[C@H]3OC(CNCC4(O)CCNCC4)=CC[C@H]3N)[C@@H](N)C[C@H]2NC(=O)[C@@H](O)CCN)OC[C@]1(C)O [Example 31] | 1 to 16 (≈ 1.51 to 24.2 µM) | 1 to 16 (≈ 1.51 to 24.2 µM)
6 | – | – | – | CN[C@@H]1[C@@H](O)[C@@H](O[C@@H]2[C@@H](O)[C@H](O[C@H]3OC(CNCCCN)=CC[C@H]3N)[C@@H](N)C[C@H]2NC(=O)[C@H](O)CCN)OC[C@]1(C)O [Example 6, 6′-(3-Amino-propyl)-1-(4-amino-2(R)-hydroxy-butyryl)-sisomicin] | 1 to 16 (≈ 1.65 to 26.4 µM) | 1 to 16 (≈ 1.65 to 26.4 µM)
7 | – | – | – | CN[C@@H]1[C@@H](O)[C@@H](O[C@@H]2[C@@H](O)[C@H](O[C@H]3OC(CNCC4CCNCC4)=CC[C@H]3N)[C@@H](N)C[C@H]2NC(=O)[C@H](O)CN)OC[C@]1(C)O [Example 8, 6′-Methyl-piperidinyl-1-(3-amino-2(R)-hydroxy-propionyl)-sisomicin] | 1 to 16 (≈ 1.58 to 25.3 µM) | < 1
8 | – | – | – | CN[C@@H]1[C@@H](O)[C@@H](O[C@@H]2[C@@H](O)[C@H](O[C@H]3OC(CNC[C@H]4C[C@H](O)CN4)=CC[C@H]3N)[C@@H](N)C[C@H]2NC(=O)[C@@H](O)CN)OC[C@]1(C)O [Example 53, 6′-(Methyl-4(S)-hydroxy-pyrrolidin-2(R)-yl)-1-(3-amino-2(S)-hydroxy-propionyl)-sisomicin] | > 16 | 1 to 16 (≈ 1.58 to 25.2 µM)
9 | – | – | – | CN[C@@H]1[C@@H](O)[C@@H](O[C@@H]2[C@@H](O)[C@H](O[C@H]3OC(CN)=CC[C@H]3NS(=O)(=O)CCN)[C@@H](N)C[C@H]2NC(=O)[C@@H](O)CCN)OC[C@]1(C)O [Example 93, 2′-(2-Amino-ethyl-sulfonamide)-1-(4-amino-2(S)-hydroxy-butyryl)-sisomicin] | 1 to 16 (≈ 1.52 to 24.4 µM) | < 1
10 | – | – | – | CN[C@@H]1[C@@H](O)[C@@H](O[C@@H]2[C@@H](O)[C@H](O[C@H]3OC(CNCCO)=CC[C@H]3N)[C@@H](N)C[C@H]2NC(=O)[C@H](O)CCN)OC[C@]1(C)O [Example 2, 6′-(2-Hydroxy-ethyl)-1-(4-amino-2(R)-hydroxy-butyryl)-sisomicin] | 1 to 16 (≈ 1.69 to 27 µM) | 1 to 16 (≈ 1.69 to 27 µM)
11 | – | – | – | CN[C@@H]1[C@@H](O)[C@@H](O[C@@H]2[C@@H](O)[C@H](O[C@H]3OC(CNCCO)=CC[C@H]3N)[C@@H](N)C[C@H]2NC(=O)C2(O)CC(N)C2)OC[C@]1(C)O (stereo partly shown) [Example 62] | 1 to 16 (≈ 1.65 to 26.5 µM) | < 1
12 | – | – | – | CN[C@@H]1[C@@H](O)[C@@H](O[C@@H]2[C@@H](O)[C@H](O[C@H]3OC(CNCCO)=CC[C@H]3NC(=N)N)[C@@H](N)C[C@H]2N)OC[C@]1(C)O [Example 106, 6′-(2-Hydroxy-ethyl)-2′-guanidinium-sisomicin] | 1 to 16 (≈ 1.87 to 30 µM) | < 1
13 | – | – | – | CN[C@@H]1[C@@H](O)[C@@H](O[C@@H]2[C@@H](O)[C@H](O[C@H]3OC(CNCC(N)CO)=CC[C@H]3N)[C@@H](N)C[C@H]2NC(=O)[C@@H](O)CCN)OC[C@]1(C)O (stereo partly drawn) [Example 30, 6′-(2-Amino-propanol)-1-(4-amino-2(S)-hydroxy-butyryl)-sisomicin] | 1 to 16 (≈ 1.61 to 25.7 µM) | < 1
14 | – | – | – | CN[C@@H]1[C@@H](O)[C@@H](O[C@@H]2[C@@H](O)[C@H](O[C@H]3OC(CNCC(C)(C)N)=CC[C@H]3N)[C@@H](N)C[C@H]2NC(=O)[C@@H](O)CN)OC[C@]1(C)O [Example 55, 6′-(2-Methyl-2-amino-propyl)-1-(3-amino-2(S)-hydroxy-propionyl)-sisomicin] | > 16 | 1 to 16 (≈ 1.65 to 26.4 µM)
15 | – | – | – | CN[C@@H]1[C@@H](O)[C@@H](O[C@@H]2[C@@H](O)[C@H](O[C@H]3OC(CNC(=N)N)=CC[C@H]3NC(=N)N)[C@@H](N)C[C@H]2N)OC[C@]1(C)O [Example 105, 6′,2′-bis-Guanidinium-sisomicin] | > 16 | > 16
16 | – | – | – | CN[C@@H]1[C@@H](O)[C@@H](O[C@@H]2[C@@H](O)[C@H](O[C@H]3OC(CNCCC4(O)CNC4)=CC[C@H]3N)[C@@H](N)C[C@H]2NC(=O)[C@@H](O)CN)OC[C@]1(C)O [Example 70, 6′-(Ethyl-2-(3-hydroxy-azetidin-3-yl))-1-(3-amino-2(S)-hydroxy-propionyl)-sisomicin] | > 16 | 1 to 16 (≈ 1.58 to 25.2 µM)
17 | – | – | – | CN[C@@H]1[C@@H](O)[C@@H](O[C@@H]2[C@@H](O)[C@H](O[C@H]3OC(CNCCO)=CC[C@H]3N)[C@@H](N)C[C@H]2NC(=O)[C@H](O)CN)OC[C@]1(C)O [Example 9, 6′-(2-Hydroxy-ethyl)-1-(3-amino-2(R)-hydroxy-propionyl)-sisomicin] | > 16 | 1 to 16 (≈ 1.73 to 27.6 µM)
18 | – | – | – | CN[C@@H]1[C@@H](O)[C@@H](O[C@@H]2[C@@H](O)[C@H](O[C@H]3OC(CNCC(O)CN)=CC[C@H]3N)[C@@H](N)C[C@H]2NC(=O)C(O)C2CNC2)OC[C@]1(C)O (stereo partly shown) [Example 82, 6′-(2-Hydroxy-3-amino-propyl)-1-(2-(azetidin-3-yl)-2-hydroxy-acetyl)-sisomicin] | > 16 | 1 to 16 (≈ 1.58 to 25.2 µM)
19 | – | – | – | CN[C@@H]1[C@@H](O)[C@@H](O[C@@H]2[C@@H](O)[C@H](O[C@H]3OC(CNCC(C)(C)CN)=CC[C@H]3N)[C@@H](N)C[C@H]2NC(=O)[C@@H](O)CN)OC[C@]1(C)O [Example 51, 6′-(2,2-Dimethyl-3-amino-propyl)-1-(3-amino-2(S)-hydroxy-propionyl)-sisomicin] | > 16 | < 1
20 | – | – | – | CN[C@@H]1[C@@H](O)[C@@H](O[C@@H]2[C@@H](O)[C@H](O[C@H]3OC(CN)=CC[C@H]3NCC(N)CO)[C@@H](N)C[C@H]2NC(=O)[C@@H](O)CCN)OC[C@]1(C)O (stereo partly drawn) [Example 97, 2′-(2-Amino-propanol)-1-(4-amino-2(S)-hydroxy-butyryl)-sisomicin] | 1 to 16 (≈ 1.61 to 25.7 µM) | < 1
21 | – | – | – | CN[C@@H]1[C@@H](O)[C@@H](O[C@@H]2[C@@H](O)[C@H](O[C@H]3OC(CNCCN)=CC[C@H]3N)[C@@H](N)C[C@H]2NC(=O)[C@@H](O)CCN)OC[C@]1(C)O [Example 38, 6′-(2-Amino-ethyl)-1-(4-amino-2(S)-hydroxy-butyryl)-sisomicin] | 1 to 16 (≈ 1.69 to 27 µM) | < 1
22 | – | – | – | CN[C@@H]1[C@@H](O)[C@@H](O[C@@H]2[C@@H](O)[C@H](O[C@H]3OC(CN)=CC[C@H]3NC[C@H]3C[C@H](N)C3)[C@@H](N)C[C@H]2NC(=O)[C@@H](O)CCN)OC[C@]1(C)O [Example 104, 2′-(Methyl-trans-3-amino-cyclobutyl)-1-(4-amino-2(S)-hydroxy-butyryl)-sisomicin] | 1 to 16 (≈ 1.58 to 25.3 µM) | < 1
23 | – | – | – | CN[C@@H]1[C@@H](O)[C@@H](O[C@@H]2[C@@H](O)[C@H](O[C@H]3OC(CN)=CC[C@H]3NCC(O)CN)[C@@H](N)C[C@H]2NC(=O)[C@@H](O)CCN)OC[C@]1(C)O (stereo partly drawn) [Example 101, 2′-(2-Hydroxy-3-amino-propyl)-1-(4-amino-2(S)-hydroxy-butyryl)-sisomicin] | 1 to 16 (≈ 1.61 to 25.7 µM) | < 1
24 | – | – | – | CN[C@@H]1[C@@H](O)[C@@H](O[C@@H]2[C@@H](O)[C@H](O[C@H]3OC(CNCC4(N)CCC4)=CC[C@H]3N)[C@@H](N)C[C@H]2NC(=O)[C@@H](O)CN)OC[C@]1(C)O [Example 56, 6′-(Methyl-1-amino-cyclobutyl)-1-(3-amino-2(S)-hydroxy-propionyl)-sisomicin] | > 16 | < 1
25 | – | – | – | CN[C@@H]1[C@@H](O)[C@@H](O[C@@H]2[C@@H](O)[C@H](O[C@H]3OC(CN)=CC[C@H]3NCC(C)(C)CN(C)C)[C@@H](N)C[C@H]2NC(=O)[C@@H](O)CCN)OC[C@]1(C)O [Example 94, 2′-(N,N-Dimethyl-2,2-dimethyl-3-amino-propyl)-1-(4-amino-2(S)-hydroxy-butyryl)-sisomicin] | > 16 | 1 to 16 (≈ 1.51 to 24.2 µM)
26 | – | – | – | CN[C@@H]1[C@@H](O)[C@@H](O[C@@H]2[C@@H](O)[C@H](O[C@H]3OC(CNCC(O)CO)=CC[C@H]3N)[C@@H](N)C[C@H]2NS(=O)(=O)CCN)OC[C@]1(C)O (stereo partly shown) [Example 27, 6′-(2-Hydroxy-propanol)-1-(2-amino-ethylsulfonamide)-sisomicin] | > 16 | 1 to 16 (≈ 1.59 to 25.4 µM)
27 | – | – | – | CN[C@@H]1[C@@H](O)[C@@H](O[C@@H]2[C@@H](O)[C@H](O[C@H]3OC(CNCCCN)=CC[C@H]3N)[C@@H](N)C[C@H]2NS(=O)(=O)CCN)OC[C@]1(C)O [Example 26, 6′-(3-Amino-propyl)-1-(2-amino-ethylsulfonamide)-sisomicin] | 1 to 16 (≈ 1.63 to 26.2 µM) | 1 to 16 (≈ 1.63 to 26.2 µM)
